In PubChem BioAssay (NCI) one finds GI50 and TGI data, which are given here for nine molecules.

Among the test systems are UACC-257 melanoma; MDA-MB-435; SR leukemia; COLO 205 colon; SNB-75 CNS; OVCAR-8 ovarian; SF-295 CNS; NCI-H522 lung; MOLT-4 leukemia; 786-0 renal.
What all share (test): inhibition of tumour cell growth, NCI panel, 48 h

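Protocol summary: plate cells (96-well), add compound at 5 concentrations, incubate 48 h, interpolate endpoints linearly. GI50: concentration for 50% inhibition of growth. At the TGI there is no net growth.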

In the case of `COc1cc(/C=C\c2cc(/C=C\c3ccc(O)c(OC)c3)n(C(=O)Nc3ccc(C(F)(F)F)cc3)n2)ccc1O`, the GI50 was 4.01 µM with UACC-257 melanoma; 2350 nM in the assay with MDA-MB-435; 1480 nM in the assay on SR leukemia; 2050 nM with COLO 205 colon; 2.99 µM in the assay on SNB-75 CNS; 3.33 µM in the assay on OVCAR-8 ovarian. Besides, the GI50 in the assay with SF-295 CNS was 2890 nM; in the assay on NCI-H522 lung, 1.78 µM; in the assay with MOLT-4 leukemia it was 2730 nM; with 786-0 renal, 2420 nM. Besides, the TGI is 14 µM in the assay with UACC-257 melanoma; 7.06 µM with MDA-MB-435; above 100 µM in the assay on SR leukemia; 4.5 µM in the assay with COLO 205 colon; 66 µM with SNB-75 CNS; above 100 µM in the assay with OVCAR-8 ovarian. Besides, the TGI in the assay on SF-295 CNS worked out at 9.85 µM; in the assay with NCI-H522 lung, 4.65 µM; with MOLT-4 leukemia, 20 µM; with 786-0 renal, 7.52 µM.

Regarding `CC(C)(C)c1ccc(NC(=O)c2cc(=O)c3ccccc3[nH]2)c(C(C)(C)C)c1O`, the GI50 was 6.35 µM in the assay with UACC-257 melanoma; 4920 nM with MDA-MB-435; 2130 nM in the assay on SR leukemia; 3800 nM with COLO 205 colon; 7.4 µM in the assay on SNB-75 CNS; 3.28 µM in the assay with OVCAR-8 ovarian. Further, the GI50 was 6250 nM in the assay with SF-295 CNS, 8.04 µM with NCI-H522 lung, 2670 nM in the assay on MOLT-4 leukemia and 3050 nM with 786-0 renal. Moreover, the TGI in the assay with UACC-257 melanoma is 21.3 µM; in the assay on MDA-MB-435, 17.7 µM; in the assay with SR leukemia, 4.69 µM; in the assay with COLO 205 colon, 10.5 µM; in the assay with SNB-75 CNS, 21.8 µM; in the assay with OVCAR-8 ovarian, 12.2 µM. Moreover, the TGI came out at 20.2 µM with SF-295 CNS, 20.8 µM in the assay with NCI-H522 lung, 7.59 µM in the assay on MOLT-4 leukemia and 12.1 µM with 786-0 renal.

For the molecule `COc1cc2c(c(OC)c1OC)C(=O)c1c-2n(CCCN)c(=O)c2cc([N+](=O)[O-])ccc12`, the GI50 is 5.18 µM in the assay on UACC-257 melanoma; 1070 nM in the assay with MDA-MB-435; 2410 nM in the assay on SR leukemia; 1220 nM with COLO 205 colon; 1.41 µM with SNB-75 CNS; 1640 nM in the assay on SF-295 CNS. For the same molecule, the GI50 is 5.79 µM with NCI-H522 lung, 8080 nM in the assay on MOLT-4 leukemia and 481 nM in the assay with 786-0 renal. The TGI amounted to 12.2 µM in the assay on UACC-257 melanoma; 2.4 µM in the assay on MDA-MB-435; 5.44 µM in the assay with SR leukemia; 6.3 µM with COLO 205 colon; 3.31 µM in the assay with SNB-75 CNS; 3.39 µM with SF-295 CNS. Further, the TGI was found to be 14 µM with NCI-H522 lung, 19.1 µM with MOLT-4 leukemia and 1.04 µM in the assay on 786-0 renal.

For the molecule `S=C1SC2(CCCCCC2)NC2=C1CCCCC2`, the TGI in the assay on UACC-257 melanoma was 67.1 µM; with MDA-MB-435 it was above 100 µM; with SR leukemia, 80.4 µM; in the assay with COLO 205 colon, 35.8 µM; in the assay on SNB-75 CNS, 81.8 µM; in the assay on OVCAR-8 ovarian, above 100 µM. Further, the TGI is 99 µM in the assay on SF-295 CNS, 66.8 µM in the assay with MOLT-4 leukemia and above 100 µM in the assay with 786-0 renal.

`CC(C)NCCCNC1=C(Cl)C(=O)c2ccccc2C1=O`: the GI50 in the assay with UACC-257 melanoma was 1.91 µM; in the assay with MDA-MB-435 it was 2100 nM; in the assay on SR leukemia it was 2270 nM; with COLO 205 colon it was 1870 nM; with SNB-75 CNS it was 10.3 µM; with OVCAR-8 ovarian, 2.13 µM. Further, the GI50 was 8.69 µM in the assay on NCI-H522 lung, 2050 nM with MOLT-4 leukemia and 18100 nM in the assay on 786-0 renal. Also, the TGI stood at 3.63 µM in the assay with UACC-257 melanoma; 4.07 µM with MDA-MB-435; 6.08 µM in the assay with SR leukemia; 3.56 µM in the assay with COLO 205 colon; 22.4 µM in the assay on SNB-75 CNS; 5.1 µM in the assay on OVCAR-8 ovarian. Further, the TGI turned out to be 21.8 µM with NCI-H522 lung, 4.61 µM in the assay with MOLT-4 leukemia and 33.5 µM in the assay with 786-0 renal.

Consider `C[C@]1(O)CC(=O)[C@]2(O)C3=C(C=C[C@]2(O)C1)C(=O)c1c(O)cccc1C3=O`, for which the GI50 with UACC-257 melanoma is 1.68 µM; in the assay with MDA-MB-435 it was 1850 nM; in the assay on SR leukemia it was 635 nM; with COLO 205 colon, 229 nM; in the assay with SNB-75 CNS, 11.4 µM; in the assay with OVCAR-8 ovarian, 2.67 µM. Moreover, the GI50 in the assay on SF-295 CNS was 18300 nM; in the assay on MOLT-4 leukemia it was 1120 nM; in the assay on 786-0 renal, 2880 nM. For the same molecule, the TGI with UACC-257 melanoma was found to be 3.21 µM; in the assay with MDA-MB-435, 3.44 µM; in the assay on SR leukemia, 4.95 µM; in the assay with COLO 205 colon, 0.584 µM; in the assay with SNB-75 CNS, 26.4 µM; in the assay with OVCAR-8 ovarian, 7.75 µM. Besides, the TGI in the assay on SF-295 CNS was determined as 34.4 µM; in the assay with MOLT-4 leukemia, 3.98 µM; in the assay with 786-0 renal, 8.5 µM.

For `CC(=O)OC1CC(C)c2c1ncnc2N1CCN(C(=O)OC(C)(C)C)CC1` (stereo unspecified), the GI50 with MDA-MB-435 is 19800 nM; with SR leukemia, 21600 nM; in the assay on COLO 205 colon, 38500 nM; in the assay on SNB-75 CNS, 25.2 µM; with OVCAR-8 ovarian, 54.3 µM; in the assay with NCI-H522 lung it was 22.6 µM. The GI50 in the assay with MOLT-4 leukemia is 37200 nM; in the assay on 786-0 renal, 56200 nM. Moreover, the TGI is 41 µM with MDA-MB-435; 63.7 µM in the assay with SR leukemia; above 100 µM in the assay with COLO 205 colon; above 100 µM in the assay with SNB-75 CNS; above 100 µM in the assay on OVCAR-8 ovarian; 47.2 µM in the assay with NCI-H522 lung. The TGI with MOLT-4 leukemia and in the assay on 786-0 renal was above 100 µM throughout.

On to `Cc1cc(Cl)ccc1OCC(=O)Oc1c(Cl)c(Cl)c(Cl)c(Cl)c1Cl`, for which the TGI came to 45.3 µM with UACC-257 melanoma; 68.9 µM with MDA-MB-435; 60 µM in the assay with SR leukemia; 78 µM with COLO 205 colon; 62.6 µM in the assay on SNB-75 CNS; 66.8 µM in the assay with OVCAR-8 ovarian. Further, the TGI in the assay on SF-295 CNS came out at 67.9 µM; in the assay with NCI-H522 lung it was 48.4 µM; with 786-0 renal it was 85.5 µM.

In the case of `CCCCCCCCOC(=O)c1cc(O)c(O)c(O)c1`, the GI50 is 6.4 µM in the assay with UACC-257 melanoma; 1530 nM with MDA-MB-435; 352 nM in the assay with SR leukemia; 9360 nM with COLO 205 colon; 2.71 µM with SNB-75 CNS; 3.14 µM in the assay with OVCAR-8 ovarian. Besides, the values for the GI50 with SF-295 CNS, with MOLT-4 leukemia and in the assay on 786-0 renal were 2230 nM, 437 nM and 2460 nM, respectively. The TGI with UACC-257 melanoma turned out to be 45.4 µM; with MDA-MB-435, 16.5 µM; in the assay with SR leukemia it was 10.3 µM; with COLO 205 colon, 24.8 µM; with SNB-75 CNS it was 37.6 µM; in the assay with OVCAR-8 ovarian, 37.5 µM. In addition, the figures for the TGI in the assay with SF-295 CNS, in the assay with MOLT-4 leukemia and in the assay on 786-0 renal were 8.47 µM, 16.5 µM and 11.9 µM, respectively.
